Measured values published in patent US11666558B2, “Methods of treating intraocular pressure with activators of Tie-2” (EyePoint Pharmaceuticals, Inc., priority 2015, dated 2023).
One block for each compound: values may come before it.

How the values were obtained:
HPTP-β = HPTP-β (Homo sapiens (Human), UniProt P23467); experiment: HPTP-β inhibitory activity (IC50); format: biochemical
intraocular pressure = experiment: Intraocular pressure, Compound 1 with sham or ranibizumab, Months 1-3 (FIG. 2, TABLE 1); format: in vivo
Protocol: The difference in IOP was determined relative to a pre-treatment baseline (Base) at months 1, 2, and 3 (M1-M3). Intraocular pressure was determined in the study eye in millimeters of mercury (mmHg). […] The difference in IOP was determined relative to a pre-treatment Baseline at Months 1, 2 and 3. Intraocularpressure was determined in the study eye/fellow eye in mmHg.

Sequence of HPTP-β (P23467 23-1997): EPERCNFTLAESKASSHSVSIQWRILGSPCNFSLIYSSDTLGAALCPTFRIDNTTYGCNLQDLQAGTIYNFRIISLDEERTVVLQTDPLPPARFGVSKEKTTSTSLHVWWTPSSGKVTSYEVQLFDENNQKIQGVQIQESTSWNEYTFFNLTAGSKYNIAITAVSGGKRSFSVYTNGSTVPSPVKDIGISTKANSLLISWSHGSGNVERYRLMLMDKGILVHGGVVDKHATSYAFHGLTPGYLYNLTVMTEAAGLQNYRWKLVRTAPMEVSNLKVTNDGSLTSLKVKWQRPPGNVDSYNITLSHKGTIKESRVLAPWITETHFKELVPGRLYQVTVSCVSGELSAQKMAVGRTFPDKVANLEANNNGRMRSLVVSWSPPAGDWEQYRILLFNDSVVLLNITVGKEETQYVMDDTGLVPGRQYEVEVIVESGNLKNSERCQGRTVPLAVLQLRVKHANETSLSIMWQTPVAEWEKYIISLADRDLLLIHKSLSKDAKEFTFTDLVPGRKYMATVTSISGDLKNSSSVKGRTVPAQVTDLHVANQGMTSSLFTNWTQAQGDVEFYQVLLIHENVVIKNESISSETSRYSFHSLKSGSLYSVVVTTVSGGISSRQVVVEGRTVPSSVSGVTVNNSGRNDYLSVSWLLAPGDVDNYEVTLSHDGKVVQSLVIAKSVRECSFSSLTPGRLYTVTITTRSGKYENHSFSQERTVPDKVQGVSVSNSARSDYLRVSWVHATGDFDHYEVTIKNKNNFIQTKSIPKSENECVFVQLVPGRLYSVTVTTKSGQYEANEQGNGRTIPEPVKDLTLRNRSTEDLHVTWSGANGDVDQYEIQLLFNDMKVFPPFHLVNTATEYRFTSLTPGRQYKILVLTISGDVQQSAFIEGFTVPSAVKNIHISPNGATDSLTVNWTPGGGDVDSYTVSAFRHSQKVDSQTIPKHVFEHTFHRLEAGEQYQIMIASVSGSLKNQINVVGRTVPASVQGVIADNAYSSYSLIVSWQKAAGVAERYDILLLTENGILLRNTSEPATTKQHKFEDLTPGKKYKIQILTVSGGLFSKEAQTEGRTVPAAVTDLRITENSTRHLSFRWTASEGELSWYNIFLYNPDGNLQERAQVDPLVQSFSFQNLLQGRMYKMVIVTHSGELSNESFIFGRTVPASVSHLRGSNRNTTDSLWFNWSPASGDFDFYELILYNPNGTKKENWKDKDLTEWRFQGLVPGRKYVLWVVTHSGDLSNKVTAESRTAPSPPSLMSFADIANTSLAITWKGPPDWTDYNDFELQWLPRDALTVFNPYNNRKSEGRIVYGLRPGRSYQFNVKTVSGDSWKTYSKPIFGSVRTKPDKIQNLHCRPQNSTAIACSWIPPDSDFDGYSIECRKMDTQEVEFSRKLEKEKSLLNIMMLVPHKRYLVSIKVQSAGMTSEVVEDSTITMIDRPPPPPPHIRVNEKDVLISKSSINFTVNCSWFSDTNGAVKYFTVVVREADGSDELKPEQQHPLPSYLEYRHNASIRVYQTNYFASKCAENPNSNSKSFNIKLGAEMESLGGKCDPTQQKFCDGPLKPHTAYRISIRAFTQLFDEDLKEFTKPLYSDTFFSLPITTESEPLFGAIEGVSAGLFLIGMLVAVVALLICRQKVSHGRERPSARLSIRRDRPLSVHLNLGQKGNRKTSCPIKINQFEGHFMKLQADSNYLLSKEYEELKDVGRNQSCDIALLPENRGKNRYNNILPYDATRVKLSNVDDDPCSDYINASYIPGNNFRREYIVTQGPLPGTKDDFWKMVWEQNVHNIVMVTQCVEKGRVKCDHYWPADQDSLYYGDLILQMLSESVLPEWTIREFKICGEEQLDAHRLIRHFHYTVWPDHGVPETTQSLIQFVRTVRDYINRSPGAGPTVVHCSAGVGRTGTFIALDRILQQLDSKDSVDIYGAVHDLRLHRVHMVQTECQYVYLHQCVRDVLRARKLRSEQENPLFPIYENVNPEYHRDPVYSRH

Compound: CC(C)(C)OC(=O)N[C@@H](Cc1ccc(NS(=O)(=O)O)cc1)c1csc(OC(=O)C(C)(C)C)n1 [AA71]
IC50 (HPTP-β): 555 nM

Compound: COC(=O)N[C@@H](Cc1ccccc1)C(=O)N[C@@H](Cc1ccc(NS(=O)(=O)O)cc1)c1nc(-c2ccccc2)cs1 [AA21]
IC50 (HPTP-β): < 0.002 nM

Compound: ranibizumab [placebo + RBZ]
IOP, fellow eye (intraocular pressure; Baseline (pre-treatment)): 15.8 mmHg
IOP, study eye (intraocular pressure; Baseline (pre-treatment)): 15.2 mmHg
IOP, fellow eye (intraocular pressure; Month 1): 15.5 mmHg
IOP, study eye (intraocular pressure; Month 1): 15.0 mmHg
IOP, fellow eye (intraocular pressure; Month 2): 15.5 mmHg
IOP, study eye (intraocular pressure; Month 2): 15.0 mmHg
IOP, fellow eye (intraocular pressure; Month 3): 15.7 mmHg
IOP, study eye (intraocular pressure; Month 3): 15.3 mmHg

The next lines start with the values.

IC50 (HPTP-β): 6 nM
Compound: CCc1csc([C@H](Cc2ccc(NS(=O)(=O)O)cc2)NC(=O)[C@H](CC(C)C)NC(=O)OC(C)(C)C)n1 [AA42]

IC50 (HPTP-β): 31 nM
Compound: CCc1csc([C@H](Cc2ccc(NS(=O)(=O)O)cc2)NC(=O)[C@H](CNC(=O)OC(C)(C)C)Cc2ccccc2)n1 [AA3]
